Laboratory results as given in patent US20070218509A1, “Murine Living Tissue Model & UsesTthereof” (priority 2003, published 2007).

Key:
[1] = tested on: T52 Hufos invasive tumour model; experiment: T52 Hufos invasive tumour three-dimensional model, area of cell cover; type: cell-based, mouse; details: 10^−7M RA, 10 day culture period (FIG. 7)
Excerpt: Hufos invasive tumour model over a 10 day culture period. In summary the in vitro models were developed using contracted collagen gels which supported a layer of mouse tumour cells or corresponding “normal” epithelial cells. The collagen gel was comprised of type I collagen, isolated from rat tail tendon, contracted using primary mouse fibroblasts, which were isolated from the dermis of newborn (or embryonic) mice. The collagen gels contracted to a size approximately 1.5 cm in diameter and were seeded with a single cell suspension of mouse tumour or normal epithelial cells. The models were initially maintained as submerged cultures, which allowed the cells to adhere to the collagen gel and grow. The models may thereafter be raised to the air-liquid interface (semi-submerged culture) to promote cell differentiation and formation of tissue. […] Test agents can be added to the model system at different stages of tumour development. The models are directly imaged as whole mounts by fluorescent labelling of cells either with vital dyes or genetic markers or after fixation and staining. In more detail, the collagen gel, described below, which supports the layer of epithelial cells (BalbMK (Weissman and Aaronson 1985), SP-1 (Strickland et al. 1988) or [MUT] Hufos (Greenhalgh and Yuspa 1988) in the prototype models), was contracted using dermal fibroblasts isolated from newborn mouse skin. […]

[2] = tested on: SP-1 cells; experiment: Growth curves of SP-1 cells in monolayer culture; type: cell-based; details: Mus musculus, 240 h; SP-1 monolayer culture, 10 days in culture, 10^−7M RA; read-out: inhibition of the log phase of growth
[3] = tested on: SP-1 papilloma model; experiment: SP-1 papilloma three-dimensional model, area of cell cover (propidium iodide stained whole mounts); type: cell-based, mouse; details: SP-1 model
Experimental: In summary the in vitro models were developed using contracted collagen gels which supported a layer of mouse tumour cells or corresponding “normal” epithelial cells. The collagen gel was comprised of type I collagen, isolated from rat tail tendon, contracted using primary mouse fibroblasts, which were isolated from the dermis of newborn (or embryonic) mice. The collagen gels contracted to a size approximately 1.5 cm in diameter and were seeded with a single cell suspension of mouse tumour or normal epithelial cells. The models were initially maintained as submerged cultures, which allowed the cells to adhere to the collagen gel and grow. The models may thereafter be raised to the air-liquid interface (semi-submerged culture) to promote cell differentiation and formation of tissue. […] Test agents can be added to the model system at different stages of tumour development. The models are directly imaged as whole mounts by fluorescent labelling of cells either with vital dyes or genetic markers or after fixation and staining.
In more detail, the collagen gel, described below, which supports the layer of epithelial cells (BalbMK (Weissman and Aaronson 1985), SP-1 (Strickland et al. 1988) or T52 Hufos (Greenhalgh and Yuspa 1988) in the prototype models), was contracted using dermal fibroblasts isolated from newborn mouse skin. The epidermis and dermis were separated from each other following an overnight digestion with trypsin at 4° C. The dermal tissue washed in sterile PBS, dissected-into very small pieces, suspended in 3-5 ml of MEM culture media and the slurry seeded into a 75 cm^2 plastic culture flask. This tissue was cultured without disturbance until the tissue pieces had adhered to the plastic flask. Fresh MEM (Minimum Essential Medium) supplemented with 10% foetal calf serum, 1% L-glutamine, 100 U/ml penicillin and 100 μg/ml streptomycin was added to the flask at this time. Fibroblast cell outgrowth from the dermal tissue explants was observed after several days. The excess tissue was removed and the fibroblast cells cultured to confluence. […]

[4] = tested on: T52 Hufos invasive tumour model; experiment: T52 Hufos invasive tumour model, cell killing (H & E stained paraffin sections); type: cell-based, mouse
Experimental: (§1) FIG. 10: Treatment of models with the anti-tumour drug cisplatin. H & E stained paraffin sections (×400 magnification) of SP-1 “papilloma” model (A, C and E) and T52-Hufos “invasive tumour” model (B, D and F). Shown are (A and B) untreated models (without cisplatin), (C and D) models treated with 50 μM cisplatin and (E and F) models treated with 500 μM cisplatin.
(§2) Cell models were harvested at appropriate time intervals and fixed overnight, at room temperature in a solution of buffered formalin. A small piece of the model was removed and embedded in paraffin wax. Sections were cut and mounted onto glass slides and stained with haematoxylin and eosin (H & E stain). The remainder of the model washed in PBS (phosphate buffered saline), permeabilised with Triton X-100 and stained with propidium iodide (PI). The washed models were stored thereafter in the dark at 4° C. and maintained their fluorescence for several weeks. Whole mounts of the PI stained models were analysed using fluorescent microscopy through coverslips applied directly to the surface of the tissue.

[5] = tested on: SP-1 papilloma model; experiment: SP-1 papilloma model, cell killing (H & E stained paraffin sections); type: cell-based, mouse; details: SP-1 model
Experimental: as §1, §2

[6] = higher cisplatin concentration (500 μM, FIG. 10)
[7] = lower cisplatin concentration (50 μM, FIG. 10)

CC1=C(/C=C/C(C)=C/C=C/C(C)=C/C(=O)O)C(C)(C)CCC1 [RA, All-trans-Retinoic acid]
effect on area of cell cover [1]: no effect | inhibition at 0.1 µM [2]: 46% | effect on area of cell cover ([3]; 10^−6M RA (highest concentration studied), day 8 and day 10 (FIG. 6)): marked effect | effect on area of cell cover ([3]; 10^−7M RA, vs untreated controls, time course to day 12 (FIG. 5)): modest effect with less cell cover than the corresponding untreated controls | degree of growth inhibition, concentration dependence ([3]; RA at 10^−6M, 10^−7M and 10^−8M (FIG. 6)): concentration dependent

N.N.[Cl][Pt][Cl] [cisplatin]
cell killing [4, 6]: extensive cell death | cell killing [4, 7]: evidence of cell killing | cell killing [5, 6]: extensive cell death | cell killing [5, 7]: evidence of cell killing
